Target: T1, Cav3.1 low voltage-gated Ca^2+ channel (Homo sapiens, UniProt O43497)
T1 construct: gene CACNA1G
Test: electrophysiology: peak-current inhibition in HEK […] cells expressing human Cav3.[…]
Format: cell-based

T1 sequence (O43497 whole entry): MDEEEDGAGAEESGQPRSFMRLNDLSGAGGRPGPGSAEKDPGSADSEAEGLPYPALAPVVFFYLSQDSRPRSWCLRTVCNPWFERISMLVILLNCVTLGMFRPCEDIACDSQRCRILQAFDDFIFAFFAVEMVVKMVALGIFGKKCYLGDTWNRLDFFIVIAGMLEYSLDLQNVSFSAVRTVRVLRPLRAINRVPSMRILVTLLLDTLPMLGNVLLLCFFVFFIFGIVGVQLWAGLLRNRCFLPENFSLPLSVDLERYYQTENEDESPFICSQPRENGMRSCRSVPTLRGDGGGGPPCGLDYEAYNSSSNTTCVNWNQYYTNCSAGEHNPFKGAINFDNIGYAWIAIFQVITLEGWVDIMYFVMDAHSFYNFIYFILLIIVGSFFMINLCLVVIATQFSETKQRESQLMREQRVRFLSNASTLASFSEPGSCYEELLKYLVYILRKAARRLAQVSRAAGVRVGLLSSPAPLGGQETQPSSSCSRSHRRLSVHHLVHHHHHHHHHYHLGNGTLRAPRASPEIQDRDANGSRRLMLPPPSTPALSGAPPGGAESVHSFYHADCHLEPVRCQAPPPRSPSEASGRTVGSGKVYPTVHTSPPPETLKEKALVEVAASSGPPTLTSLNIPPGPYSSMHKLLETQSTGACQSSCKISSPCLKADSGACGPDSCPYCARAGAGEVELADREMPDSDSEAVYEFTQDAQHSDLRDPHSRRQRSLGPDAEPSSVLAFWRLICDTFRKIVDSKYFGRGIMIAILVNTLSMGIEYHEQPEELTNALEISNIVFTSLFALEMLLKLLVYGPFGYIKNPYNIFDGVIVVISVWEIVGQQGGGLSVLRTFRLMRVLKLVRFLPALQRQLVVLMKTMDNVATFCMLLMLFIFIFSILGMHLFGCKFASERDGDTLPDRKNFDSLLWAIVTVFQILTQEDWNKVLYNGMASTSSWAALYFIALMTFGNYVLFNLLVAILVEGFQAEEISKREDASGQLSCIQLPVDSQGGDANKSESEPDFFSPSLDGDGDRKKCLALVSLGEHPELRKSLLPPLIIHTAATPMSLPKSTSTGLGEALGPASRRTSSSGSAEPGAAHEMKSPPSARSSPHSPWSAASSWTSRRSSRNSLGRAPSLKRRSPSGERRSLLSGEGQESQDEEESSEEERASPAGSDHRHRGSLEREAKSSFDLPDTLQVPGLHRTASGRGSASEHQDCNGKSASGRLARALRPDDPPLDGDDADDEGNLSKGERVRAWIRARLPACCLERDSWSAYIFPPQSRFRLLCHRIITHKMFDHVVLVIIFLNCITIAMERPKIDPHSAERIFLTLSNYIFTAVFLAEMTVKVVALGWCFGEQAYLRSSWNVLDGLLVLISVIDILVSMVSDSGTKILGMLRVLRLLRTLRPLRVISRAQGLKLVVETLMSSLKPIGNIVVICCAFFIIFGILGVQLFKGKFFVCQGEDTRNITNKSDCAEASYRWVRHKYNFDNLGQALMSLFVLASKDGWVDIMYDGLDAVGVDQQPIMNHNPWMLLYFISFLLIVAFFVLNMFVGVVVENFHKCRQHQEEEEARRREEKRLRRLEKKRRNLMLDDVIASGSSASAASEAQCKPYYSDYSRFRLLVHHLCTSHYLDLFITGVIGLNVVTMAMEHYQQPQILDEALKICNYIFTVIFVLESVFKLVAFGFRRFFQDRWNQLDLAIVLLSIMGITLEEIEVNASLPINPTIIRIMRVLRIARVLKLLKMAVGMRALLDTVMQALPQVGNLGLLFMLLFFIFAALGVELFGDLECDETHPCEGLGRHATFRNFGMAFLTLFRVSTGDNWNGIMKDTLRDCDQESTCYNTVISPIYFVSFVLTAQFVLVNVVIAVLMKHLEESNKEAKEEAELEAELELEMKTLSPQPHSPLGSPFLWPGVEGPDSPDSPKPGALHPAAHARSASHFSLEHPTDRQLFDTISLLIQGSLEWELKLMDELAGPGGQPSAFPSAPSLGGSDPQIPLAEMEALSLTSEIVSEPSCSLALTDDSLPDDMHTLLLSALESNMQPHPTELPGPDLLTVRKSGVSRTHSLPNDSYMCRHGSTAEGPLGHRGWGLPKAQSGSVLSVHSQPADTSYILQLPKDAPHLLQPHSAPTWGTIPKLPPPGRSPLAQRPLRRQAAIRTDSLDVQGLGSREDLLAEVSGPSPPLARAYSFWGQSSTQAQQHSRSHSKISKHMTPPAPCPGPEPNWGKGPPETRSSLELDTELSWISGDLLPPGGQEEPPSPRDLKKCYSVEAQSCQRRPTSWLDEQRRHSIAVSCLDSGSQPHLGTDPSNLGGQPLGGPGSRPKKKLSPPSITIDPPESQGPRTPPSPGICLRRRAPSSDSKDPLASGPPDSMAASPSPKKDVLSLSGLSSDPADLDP

- IC50: 3.5 µM
SMILES: CC(C)=CCc1c([C@@H]2CC(=O)c3c(O)cc(O)c(CC=C(C)C)c3O2)cc2c(c1O)OC(C)(C)C=C2 [compound 2, 5,7,3′-trihydroxy-4′,5′-(2⁗,2⁗-dimethylpyran)-8,2′-di(3-methyl-2-butenyl)-(2S)-flavanone]
